Here are results for 15 compounds from patent publication US9676758B2, “1-heteroaryl-indoline-4-carboxamides as modulators of GPR52 useful for the treatment or prevention of disorders related thereto” (Arena Pharmaceuticals, Inc., priority 2015, dated 2017).

T1 sequence (Q9Y2T5 whole entry): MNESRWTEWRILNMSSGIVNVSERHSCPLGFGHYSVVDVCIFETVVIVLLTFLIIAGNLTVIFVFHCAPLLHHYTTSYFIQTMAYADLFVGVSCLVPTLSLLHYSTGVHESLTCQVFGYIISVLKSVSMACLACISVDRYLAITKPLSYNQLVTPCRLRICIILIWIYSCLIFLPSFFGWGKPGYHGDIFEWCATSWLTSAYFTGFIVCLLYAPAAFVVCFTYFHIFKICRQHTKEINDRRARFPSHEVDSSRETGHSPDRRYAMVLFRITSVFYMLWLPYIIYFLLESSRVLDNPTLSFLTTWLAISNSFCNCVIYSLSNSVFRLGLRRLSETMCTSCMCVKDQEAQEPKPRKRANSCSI

This assay has as its target T1, recombinant GPR52 (Homo sapiens, UniProt Q9Y2T5).
T1 construct: expressed in transfected cells
The assay is described as follows: HTRF cAMP assay for direct cAMP measurement. The format is cell-based. To be noted: mean EC50; CHO-K1 or HEK293 cells stably expressing recombinant GPR52. As for the experimental part:
HTRF cAMP assays were performed using commercially available assay kits according to the manufacturer's instructions (cAMP Dynamic 2 Assay Kit; #62AM4PEJ, Cisbio Bioassays, Bedford, Mass.). CHO-K1 or HEK293 cells stably expressing recombinant GPR52 were harvested and resuspended in assay buffer (PBS containing 0.5 mM IBMX and 0.1% BSA) at a density of 1.2×10^6 cells per mL. […] Test compounds were solubilized and serially diluted in DMSO using 5-fold dilutions to generate 10-point dose response curves. These serially diluted samples were then further diluted in PBS to achieve a 2× stock. The diluted compounds were transferred to triplicate assay plates (5 μL per well to achieve the 1× final assay concentration). A positive control was included in each assay run. After one-hour incubation at room temperature, 5 μL of cAMP D2 reagent diluted in lysis buffer was added to each well, followed by 5 μL of cryptate reagent. Plates were then incubated at room temperature for one hour prior to reading. Time-resolved fluorescence measurements were collected on an HTRF-capable plate reader (e.g., EnVision® (PerkinElmer, Waltham, Mass.) or PHERAstar (BMG LABTECH, Cary, N.C.)). Counts from the plate reader were fit to the cAMP standard curve included on each plate to determine the amount of cAMP in each test well. Dose-response curves were generated from the cAMP data and analyzed using a nonlinear least squares curve-fitting program to obtain EC50 values.
On to `O=C(N[C@H]1CCOC1)c1cccc2c1CCN2c1cccc(Cc2cccc(C(F)(F)F)c2)n1` [Compound 2, (S)-N-(Tetrahydrofuran-3-yl)-1-(6-(3-(trifluoromethyl)benzyl)pyridin-2-yl)indoline-4-carboxamide], for which the EC50 worked out at 106 nM.

Turning to `O=C(N[C@H]1CCOC1)c1cccc2c1CCN2c1ccnc(Cc2cccc(C(F)(F)F)c2)c1` [Compound 3, (S)-N-(Tetrahydrofuran-3-yl)-1-(2-(3-(trifluoromethyl)benzyl)pyridin-4-yl)indoline-4-carboxamide], the EC50 came to 10.3 nM.

Turning to `O=C(N[C@H]1CCOC1)c1cccc2c1CCN2c1cc(Cc2cccc(C(F)(F)F)c2)ccn1` [Compound 4, (S)-N-(Tetrahydrofuran-3-yl)-1-(4-(3-(trifluoromethyl)benzyl)pyridin-2-yl)indoline-4-carboxamide], the EC50 was determined as 12.3 nM.

With `O=C(N[C@H]1CCOC1)c1cccc2c1CCN2c1cncc(Cc2cccc(C(F)(F)F)c2)c1` [Compound 7, (S)-N-(Tetrahydrofuran-3-yl)-1-(5-(3-(trifluoromethyl)benzyl)pyridin-3-yl)indoline-4-carboxamide], the EC50 turned out to be 5.21 nM.

For the compound `CNC(=O)c1cccc2c1CCN2c1cncc(Cc2cccc(C(F)(F)F)c2)c1` [Compound 9, N-Methyl-1-(5-(3-(trifluoromethyl)benzyl)pyridin-3-yl)indoline-4-carboxamide], the EC50 is 7.45 nM.

For the compound `Cc1cc(Cc2cccc(C(F)(F)F)c2)cc(N2CCc3c(C(N)=O)cccc32)n1` [Compound 17, 1-(6-Methyl-4-(3-(trifluoromethyl)benzyl)pyridin-2-yl)indoline-4-carboxamide], the EC50 came to 80.4 nM.

In the case of `N#CCCNC(=O)c1cccc2c1CCN2c1cc(Cc2cccc(C(F)(F)F)c2)ccn1` [Compound 20, N-(2-Cyanoethyl)-1-(4-(3-(trifluoromethyl)benzyl)pyridin-2-yl)indoline-4-carboxamide], the EC50 was 36.3 nM.

For `O=C(NCCO)c1cccc2c1CCN2c1cc(Oc2cc(F)cc(C(F)(F)F)c2)ccn1` [Compound 23, 1-(4-(3-Fluoro-5-(trifluoromethyl)phenoxy)pyridin-2-yl)-N-(2-hydroxyethyl)indoline-4-carboxamide], the EC50 was 98.4 nM.

Take `NC(=O)c1cccc2c1CCN2c1cc(Sc2cccc(C(F)(F)F)c2)ccn1` [Compound 30, 1-(4-(3-(Trifluoromethyl)phenylthio)pyridin-2-yl)indoline-4-carboxamide]: the EC50 stood at 428 nM.

With `O=C(NC[C@H](O)CO)c1cccc2c1CCN2c1cc(Cc2cc(F)cc(C(F)(F)F)c2)ccn1` [Compound 31, (S)-N-(2,3-Dihydroxypropyl)-1-(4-(3-fluoro-5-(trifluoromethyl)benzyl)pyridin-2-yl)indoline-4-carboxamide], the EC50 is 72 nM.

Consider `O=C(NCCO)c1cccc2c1CCN2c1cncc(Cc2cccc(C(F)(F)F)c2)n1` [Compound 38, N-(2-Hydroxyethyl)-1-(6-(3-(trifluoromethyl)benzyl)pyrazin-2-yl)indoline-4-carboxamide], for which the EC50 came to 601 nM.

For `NC(=O)c1cccc2c1CCN2c1cc(Cc2cnc(F)c(F)c2)ccn1` [Compound 49, 1-(4-((5,6-Difluoropyridin-3-yl)methyl)pyridin-2-yl)indoline-4-carboxamide], the EC50 was found to be 61.6 nM.

Take `Cc1cc(Cc2ccnc(N3CCc4c(C(N)=O)cccc43)c2)cnc1F` [Compound 50, 1-(4-((6-Fluoro-5-methylpyridin-3-yl)methyl)pyridin-2-yl)indoline-4-carboxamide]: the EC50 turned out to be 17.4 nM.

As to `CC(=O)c1ccc(Cc2ccnc(N3CCc4c(C(N)=O)cccc43)c2)cc1` [Compound 55, 1-(4-(4-Acetylbenzyl)pyridin-2-yl)indoline-4-carboxamide], the EC50 is 16 nM.

For the compound `CNC(=O)c1cc(Cc2ccnc(N3CCc4c(C(N)=O)cccc43)c2)ccc1F` [Compound 59, 1-(4-(4-Fluoro-3-(methylcarbamoyl)benzyl)pyridin-2-yl)indoline-4-carboxamide], the EC50 amounted to 223 nM.
